Experiments:
Type in all cases: in vivo
[1] = system: Abutilon theophrasti (ABUTH); experiment: Post-emergence herbicidal action, greenhouse pot test; conditions: Abutilon theophrasti, 504 h, rated visually after about 3 weeks vs untreated controls, 100% = plants have died
Summary of the method: (§1)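 Greenhouse-grown weeds in sandy loam were sprayed post-emergence at the one-leaf stage, 2–3 weeks after sowing. Compounds were formulated as WP or EC in water with 0.5% additive at 600 l/ha, at rates of 20 g/ha or less. Visual rating after about 3 weeks used a scale from 0% (like untreated control) to 100% (plants dead).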

[2] = system: Amaranthus retroflexus (AMARE); experiment: as above; conditions: Amaranthus retroflexus, 504 h, rated visually after about 3 weeks vs untreated controls, 100% = plants have died
Summary of the method: as §1

Avena fatua (AVEFA) = experiment: as above; conditions: Avena fatua, 504 h, 20 g/ha, rated visually after about 3 weeks vs untreated controls, 100% = plants have died, read-out: Post-emergence action at 20 g/ha against AVEFA in %
Summary of the method: as §1

Lolium rigidum (LOLRI) = experiment: as above
Summary of the method: as §1

[3] = system: Pharbitis purpurea (PHBPU); experiment: as above; conditions: Ipomoea purpurea, 504 h, read-out: Post-emergence action against PHBPU in %
Summary of the method: as §1

Veronica persica (VERPE) = experiment: as above; conditions: Veronica persica, 504 h, read-out: Post-emergence action against VERPE
Summary of the method: as §1

Viola tricolor (VIOTR) = experiment: as above; conditions: Viola tricolor, 504 h, read-out: Post-emergence action against VIOTR
Summary of the method: as §1

[4] = system: Alopecurus myosuroides (ALOMY); experiment: Post-emergence herbicidal action, greenhouse pot test (also comparative test C); conditions: rated visually after about 3 weeks vs untreated controls, 100% = plants have died
Summary of the method: (§2)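 Greenhouse pot plants in sandy loam were sprayed post-emergence at the one-leaf stage (2–3 weeks after sowing) with WP or EC formulations plus 0.5% additive at 600 l/ha water. Activity was rated visually after about 3 weeks versus untreated controls (100% = dead, 0% = like control); rates were 20 g/ha or less, and 5 g/ha or less in the comparative test.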

[5] = system: Echinochloa crus-galli (ECHCG); experiment: as above
Summary of the method: as §2

[6] = system: Matricaria inodora (MATIN); experiment: as above; conditions: Tripleurospermum inodorum, 504 h, read-out: Post-emergence action against MATIN in %
Summary of the method: as §2

Setaria viridis (SETVI) = experiment: as above; conditions: Setaria viridis, 504 h
Summary of the method: as §2

Brassica napus (BRSNW) = experiment: Post-emergence crop plant compatibility, greenhouse pot test; conditions: for Post-emergence action against BRSNW (crop plant compatibility): vs untreated controls
Summary of the method: (§3)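 Seeds are sown in sandy loam and grown under controlled greenhouse conditions. At the one-leaf stage (2–3 weeks), foliage is sprayed with the formulated compound in water containing 0.5% additive at 600 l/ha. About 3 weeks later, injury is rated visually in % against untreated plants.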

[7] = system: Triticum aestivum (TRZAS); experiment: as above; conditions: vs untreated controls
Summary of the method: as §3

Oryza sativa (ORYSA) = experiment: Post-emergence crop plant compatibility, greenhouse pot test (also comparative test C); conditions: 1.25 g/ha, vs untreated controls
Summary of the method: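 Rice and other crops sprayed post-emergence at one-leaf stage (2–3 weeks after sowing) with WP or EC formulations plus 0.5% additive at 600 l/ha water. Visual rating about 3 weeks later versus untreated controls (100% = dead, 0% = like control); suffixes a–c denote different doses.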

`Cn1c(C(F)(F)F)cc(=O)n(-c2cc(Oc3ccccc3OCC(=O)OCc3ccccn3)c(Cl)cc2F)c1=O` [I.7-276, Pyridin-2-ylmethyl (2-{2-chloro-4-fluoro-5-[3-methyl-2,6-dioxo-4-(trifluoromethyl)-3,6-dihydropyrimidin-1(2H)-yl]phenoxy}phenoxy)acetate] was tested. Which pest or weed control at 1.25 g/ha ([1]; 1.25 g/ha, read-out: Post-emergence action at 1.25 g/ha against ABUTH in %) did it give?
The pest or weed control at 1.25 g/ha was 100%.

And the pest or weed control at 5 g/ha ([1]; 5 g/ha, read-out: Post-emergence action at 5 g/ha against ABUTH in %)?
The pest or weed control at 5 g/ha was 100%.

And the pest or weed control at 20 g/ha ([1]; 20 g/ha, read-out: Post-emergence action at 20 g/ha against ABUTH in %)?
Its pest or weed control at 20 g/ha is 100%.

What about the pest or weed control at 1.25 g/ha ([2]; 1.25 g/ha, read-out: Post-emergence action at 1.25 g/ha against AMARE in %) of the same molecule?
The pest or weed control at 1.25 g/ha was 100%.

And the pest or weed control at 5 g/ha ([2]; 5 g/ha, read-out: Post-emergence action at 5 g/ha against AMARE in %)?
The pest or weed control at 5 g/ha was 100%.

What about the pest or weed control at 20 g/ha ([2]; 20 g/ha, read-out: Post-emergence action at 20 g/ha against AMARE in %) of the same molecule?
Its pest or weed control at 20 g/ha is 100%.

What about the pest or weed control at 20 g/ha (Avena fatua (AVEFA)) of the same molecule?
The pest or weed control at 20 g/ha was 90%.

And the “Post-emergence action at 5 g/ha against LOLRI in %” value (Lolium rigidum (LOLRI); 5 g/ha, rated visually after about 3 weeks vs untreated controls, 100% = plants have died)?
The value was 80%.

And the pest or weed control at 20 g/ha (Lolium rigidum (LOLRI); Lolium rigidum, 504 h, dosage 20 g/ha, read-out: Post-emergence action against LOLRI in %)?
Its pest or weed control at 20 g/ha is 100%.

And the pest or weed control at 1.25 g/ha ([3]; dosage 1.25 g/ha)?
Its pest or weed control at 1.25 g/ha is 100%.

What about the pest or weed control at 5 g/ha ([3]; dosage 5 g/ha) of the same molecule?
Its pest or weed control at 5 g/ha is 100%.

And the pest or weed control at 20 g/ha ([3]; dosage 20 g/ha)?
Its pest or weed control at 20 g/ha is 100%.

And the pest or weed control at 1.25 g/ha (Veronica persica (VERPE); 1.25 g/ha)?
Its pest or weed control at 1.25 g/ha is 100%.

What about the pest or weed control at 5 g/ha (Veronica persica (VERPE); 5 g/ha) of the same molecule?
Its pest or weed control at 5 g/ha is 100%.

And the pest or weed control at 20 g/ha (Veronica persica (VERPE); 20 g/ha)?
Its pest or weed control at 20 g/ha is 100%.

What about the pest or weed control at 1.25 g/ha (Viola tricolor (VIOTR); 1.25 g/ha) of the same molecule?
Its pest or weed control at 1.25 g/ha is 100%.

And the pest or weed control at 5 g/ha (Viola tricolor (VIOTR); 5 g/ha)?
The pest or weed control at 5 g/ha was 100%.

And the pest or weed control at 20 g/ha (Viola tricolor (VIOTR); 20 g/ha)?
Its pest or weed control at 20 g/ha is 100%.

And the “Post-emergence action at 1.25 g/ha against ALOMY in %” value ([4]; 1.25 g/ha)?
The value was 90%.

And the pest or weed control at 5 g/ha ([4]; Alopecurus myosuroides, 504 h, 5 g/ha, read-out: Post-emergence action at 5 g/ha against ALOMY in %)?
The pest or weed control at 5 g/ha was 100%.

What about the pest or weed control at 20 g/ha ([4]; Alopecurus myosuroides, 504 h, 20 g/ha, read-out: Post-emergence action at 20 g/ha against ALOMY in %) of the same molecule?
Its pest or weed control at 20 g/ha is 100%.

What about the “Post-emergence action at 1.25 g/ha against ECHCG in %” value ([5]; 1.25 g/ha, rated visually after about 3 weeks vs untreated controls, 100% = plants have died) of the same molecule?
The value was 90%.

What about the pest or weed control at 5 g/ha ([5]; Echinochloa crus-galli, 504 h, dosage 5 g/ha, read-out: Post-emergence action against ECHCG in %) of the same molecule?
Its pest or weed control at 5 g/ha is 100%.

And the pest or weed control at 20 g/ha ([5]; Echinochloa crus-galli, 504 h, dosage 20 g/ha, read-out: Post-emergence action against ECHCG in %)?
The pest or weed control at 20 g/ha was 100%.

What about the pest or weed control at 1.25 g/ha ([6]; dosage 1.25 g/ha) of the same molecule?
The pest or weed control at 1.25 g/ha was 100%.

What about the pest or weed control at 5 g/ha ([6]; dosage 5 g/ha) of the same molecule?
Its pest or weed control at 5 g/ha is 100%.

What about the pest or weed control at 20 g/ha ([6]; dosage 20 g/ha) of the same molecule?
Its pest or weed control at 20 g/ha is 100%.

What about the pest or weed control at 20 g/ha (Setaria viridis (SETVI); 20 g/ha, read-out: Post-emergence action against SETVI) of the same molecule?
The pest or weed control at 20 g/ha was 100%.

And the pest or weed control at 1.25 g/ha (Setaria viridis (SETVI); dosage 1.25 g/ha, read-out: Post-emergence action against SETVI in %)?
Its pest or weed control at 1.25 g/ha is 100%.

And the pest or weed control at 5 g/ha (Setaria viridis (SETVI); dosage 5 g/ha, read-out: Post-emergence action against SETVI in %)?
The pest or weed control at 5 g/ha was 100%.

What about the “Post-emergence action against BRSNW (crop plant compatibility)” value (Brassica napus (BRSNW); 1.25 g/ha) of the same molecule?
The value was 20%.

What about the “Post-emergence action at 5 g/ha against BRSNW in %” value (Brassica napus (BRSNW); 5 g/ha, crop plant compatibility, observed effects on crop plant in comparison to untreated controls) of the same molecule?
The value was 20%.

And the “Post-emergence action against BRSNW (crop plant compatibility)” value (Brassica napus (BRSNW); 20 g/ha)?
Its value is 20%.

What about the “Post-emergence action against TRZAS (crop plant compatibility)” value ([7]; 1.25 g/ha) of the same molecule?
The value was 20%.

And the “Post-emergence action against TRZAS (crop plant compatibility)” value ([7]; 5 g/ha)?
The value was 20%.

What about the “Post-emergence action against ORYSA (crop plant compatibility)” value (Oryza sativa (ORYSA)) of the same molecule?
Its value is 0%.

— US20240025862A1, “SUBSTITUTED N-PHENYLURACILS AND SALTS THEREOF, AND USE THEREOF AS HERBICIDAL ACTIVE SUBSTANCES” (Bayer Aktiengesellschaft, priority 2020, published 2024)
